Laboratory results reported in article PMC7161708 (Acta Pharmaceutica Sinica. B, 2019).

Test system: not given
Test: not given
Conditions: from PAMPA–BBB Pe

Row | Compound | Prediction of BBB penetration
1 | O=C(Nc1ncc(N2CCOCC2)s1)c1cccc(O)c1 [Compound 20, 3-Hydroxy-N-(5-morpholinothiazol-2-yl)benzamide] | CNS− (Compounds with Pe < 1.13 × 10^−6 cm/s show low BBB permeation (CNS−))
2 | O=C(Nc1ncc(N2CCOCC2)s1)c1ccc(O)cc1 [Compound 21, 4-Hydroxy-N-(5-morpholinothiazol-2-yl)benzamide] | CNS− (Compounds with Pe < 1.13 × 10^−6 cm/s show low BBB permeation (CNS−))
3 | CC(=O)Oc1ccc(C(=O)Nc2ncc(N3CCOCC3)s2)cc1 [Compound 23, 4-Acetyloxy-N-(5-morpholinothiazol-2-yl)benzamide] | CNS+ (Compounds with permeabilities Pe > 3.08 × 10^−6 cm/s could cross the BBB by passive diffusion (CNS+))
4 | O=C(Nc1ncc(N2CCOCC2)s1)c1ccccc1 [Compound 24, N-(5-Morpholinothiazol-2-yl)benzamide] | CNS+ (Compounds with permeabilities Pe > 3.08 × 10^−6 cm/s could cross the BBB by passive diffusion (CNS+))
5 | O=C(Nc1ncc(N2CCOCC2)s1)c1cccc2ccccc12 [Compound 30, N-(5-Morpholinothiazol-2-yl)-1-naphthamide] | CNS+ (Compounds with permeabilities Pe > 3.08 × 10^−6 cm/s could cross the BBB by passive diffusion (CNS+))
6 | O=C(Nc1ncc(N2CCOCC2)s1)c1ccc2ccccc2c1 [Compound 31, N-(5-Morpholinothiazol-2-yl)-2-naphthamide] | CNS+ (Compounds with permeabilities Pe > 3.08 × 10^−6 cm/s could cross the BBB by passive diffusion (CNS+))

Test system: phosphorylation of p70S6K
Test: Inhibition of p70S6K phosphorylation, α-screen assay in SH-SY5Y cell
Type: cell-based
Conditions: mean ± SD (n ≥ 3)

Row | Compound | Inhibition ratio of p70S6K phosphorylation at 20 μmol/L (%)
7 | O=C(Nc1ncc([N+](=O)[O-])s1)c1ccccc1O [Compound 2, tizoxanide, reference compound] | 43.09±2.98%
8 | CC(=O)Oc1ccccc1C(=O)Nc1nccs1 [Compound 4, 2-Acetyloxy-N-(thiazol-2-yl)benzamide] | 9.98±5.16%
9 | CC(=O)Oc1ccccc1C(=O)Nc1ncc(C#N)s1 [Compound 5, 2-Acetyloxy-N-(5-cyanothiazol-2-yl)benzamide] | 70.85±3.56%
10 | COC(=O)c1cnc(NC(=O)c2ccccc2OC(C)=O)s1 [Compound 6, Methyl 2-(2-acetoxybenzamido)thiazole-5-carboxylate] | 32.72±7.87%
11 | CC(=O)Oc1ccccc1C(=O)Nc1ncc(C(=O)OCc2ccccc2)s1 [Compound 7, Benzyl 2-(2-acetoxybenzamido)thiazole-5-carboxylate] | 18.88±5.27%
12 | CSc1cnc(NC(=O)c2ccccc2OC(C)=O)s1 [Compound 8, 2-Acetyloxy-N-(5-(methylthio)thiazol-2-yl)benzamide] | 44.74±9.98%
13 | CC(=O)Oc1ccccc1C(=O)Nc1ncc(S(C)(=O)=O)s1 [Compound 9, 2-Acetyloxy-N-(5-(methylsulfonyl)thiazol-2-yl)benzamide] | 10.67±10.51%
14 | CC(=O)Oc1ccccc1C(=O)Nc1ncc(C(=O)O)s1 [Compound 10, 2-(2-Acetoxybenzamido)thiazole-5-carboxylic acid] | −4.51±19.40%
15 | CC(=O)Oc1ccccc1C(=O)Nc1ncc(N2CCCCC2)s1 [Compound 11, 2-Acetyloxy-N-(5-(piperidin-1-yl)thiazol-2-yl)benzamide] | 56.27±4.61%
16 | CC(=O)Oc1ccccc1C(=O)Nc1ncc(-n2cccc2)s1 [Compound 13, 2-Acetyloxy-N-(5-(1H-pyrrol-1-yl)thiazol-2-yl)benzamide] | 69.85±0.53%
17 | CC(=O)Oc1ccccc1C(=O)Nc1ncc(N2CCNCC2)s1 [Compound 14, 2-Acetyloxy-N-(5-(piperazin-1-yl)thiazol-2-yl)benzamide] | 28.21±6.44%
18 | O=C(Nc1ncc(N2CCOCC2)s1)c1ccc(F)cc1O [Compound 15, 4-Fluoro-2-hydroxy-N-(5-morpholinothiazol-2-yl)benzamide] | 42.25±0.19%
19 | O=C(Nc1ncc(N2CCOCC2)s1)c1ccc(Cl)cc1O [Compound 16, 4-Chloro-2-hydroxy-N-(5-morpholinothiazol-2-yl)benzamide] | 21.02±4.56%
20 | O=C(Nc1ncc(N2CCOCC2)s1)c1ccc(Br)cc1O [Compound 17, 4-Bromo-2-hydroxy-N-(5-morpholinothiazol-2-yl)benzamide] | 15.41±5.32%
21 | O=C(Nc1ncc(N2CCOCC2)s1)c1ccc(C(F)(F)F)cc1O [Compound 18, 2-Hydroxy-N-(5-morpholinothiazol-2-yl)-4-(trifluoromethyl)benzamide] | 8.76±5.93%
22 | O=C(Nc1ncc(N2CCOCC2)s1)c1ccccc1O [Compound 19, 2-Hydroxy-N-(5-morpholinothiazol-2-yl)benzamide] | 53.79±3.85%
23 | O=C(Nc1ncc(N2CCOCC2)s1)c1cccc(O)c1 [Compound 20, 3-Hydroxy-N-(5-morpholinothiazol-2-yl)benzamide] | 83.86±1.54%
24 | O=C(Nc1ncc(N2CCOCC2)s1)c1ccc(O)cc1 [Compound 21, 4-Hydroxy-N-(5-morpholinothiazol-2-yl)benzamide] | 79.20±1.87%
25 | CC(=O)Oc1ccc(C(=O)Nc2ncc(N3CCOCC3)s2)cc1 [Compound 23, 4-Acetyloxy-N-(5-morpholinothiazol-2-yl)benzamide] | 84.96±0.98%
26 | O=C(Nc1ncc(N2CCOCC2)s1)c1ccccc1 [Compound 24, N-(5-Morpholinothiazol-2-yl)benzamide] | 77.51±1.48%
27 | O=C(Nc1ncc(N2CCOCC2)s1)c1ccccc1C(F)(F)F [Compound 25, N-(5-Morpholinothiazol-2-yl)-2-(trifluoromethyl)benzamide] | 22.05±1.85%

Row | Compound | Inhibition ratio of p70S6K phosphorylation at 20 μmol/L (%)
28 | O=C(Nc1ncc(N2CCOCC2)s1)c1ccccc1F [Compound 26, 2-Fluoro-N-(5-morpholinothiazol-2-yl)benzamide] | 65.98±1.74%
29 | O=C(Nc1ncc(N2CCOCC2)s1)c1ccccc1[N+](=O)[O-] [Compound 27, N-(5-Morpholinothiazol-2-yl)-2-nitrobenzamide] | 53.24±5.72%
30 | Cc1ccccc1C(=O)Nc1ncc(N2CCOCC2)s1 [Compound 28, 2-Methyl-N-(5-morpholinothiazol-2-yl)benzamide] | 55.38±1.66%
31 | COc1ccccc1C(=O)Nc1ncc(N2CCOCC2)s1 [Compound 29, 2-Methoxy-N-(5-morpholinothiazol-2-yl)benzamide] | 26.90±6.23%
32 | O=C(Nc1ncc(N2CCOCC2)s1)c1cccc2ccccc12 [Compound 30, N-(5-Morpholinothiazol-2-yl)-1-naphthamide] | 78.75±2.50%
33 | O=C(Nc1ncc(N2CCOCC2)s1)c1ccc2ccccc2c1 [Compound 31, N-(5-Morpholinothiazol-2-yl)-2-naphthamide] | 80.96±1.60%
34 | O=C(Nc1ncc(N2CCOCC2)s1)C1CC1 [Compound 39, N-(5-Morpholinothiazol-2-yl)cyclopropanecarboxamide] | 63.76±1.31%
35 | O=C(Nc1ncc(N2CCOCC2)s1)C1CCC1 [Compound 40, N-(5-Morpholinothiazol-2-yl)cyclobutanecarboxamide] | 66.21±3.74%
36 | O=C(Nc1ncc(N2CCOCC2)s1)C1CCCC1 [Compound 41, N-(5-Morpholinothiazol-2-yl)cyclopentanecarboxamide] | 63.37±4.65%
37 | O=C(Nc1ncc(N2CCOCC2)s1)C1CCCCC1 [Compound 42, N-(5-Morpholinothiazol-2-yl)cyclohexanecarboxamide] | 61.15±1.44%
38 | O=C(Nc1ncc(N2CCOCC2)s1)C1CCCCCC1 [Compound 43, N-(5-Morpholinothiazol-2-yl)cycloheptanecarboxamide] | 51.10±1.59%
39 | CC(=O)Nc1ncc(N2CCOCC2)s1 [Compound 45, N-(5-Morpholinothiazol-2-yl)acetamide] | 43.86±4.45%
40 | CCC(=O)Nc1ncc(N2CCOCC2)s1 [Compound 46, N-(5-Morpholinothiazol-2-yl)propionamide] | 44.98±8.58%
41 | CCCC(=O)Nc1ncc(N2CCOCC2)s1 [Compound 47, N-(5-Morpholinothiazol-2-yl)butyramide] | 61.71±2.51%
42 | CCCCCC(=O)Nc1ncc(N2CCOCC2)s1 [Compound 48, N-(5-Morpholinothiazol-2-yl)hexanamide] | 61.32±5.39%
43 | CC(C)CC(=O)Nc1ncc(N2CCOCC2)s1 [Compound 49, 3-Methyl-N-(5-morpholinothiazol-2-yl)butanamide] | 40.38±3.37%
44 | O=C(CCC(F)(F)F)Nc1ncc(N2CCOCC2)s1 [Compound 50, 4,4,4-Trifluoro-N-(5-morpholinothiazol-2-yl)butanamide] | 61.35±5.44%
45 | O=C(Cc1ccccc1)Nc1ncc(N2CCOCC2)s1 [Compound 51, N-(5-Morpholinothiazol-2-yl)-2-phenylacetamide] | 47.82±3.90%
46 | O=C1CCCCC1C(=O)Nc1ncc(N2CCOCC2)s1 (stereo not drawn) [Compound 53, N-(5-Morpholinothiazol-2-yl)-2-oxocyclohexanecarboxamide] | 44.94±4.00%
47 | CC(=O)CC(=O)Nc1ncc(N2CCOCC2)s1 [Compound 54, N-(5-Morpholinothiazol-2-yl)-3-oxobutanamide] | 66.46±3.73%
48 | COC[C@H]1OC(=O)c2coc3c2[C@@]1(C)C1=C(C3=O)[C@@H]2CCC(=O)[C@@]2(C)C[C@H]1OC(C)=O [WORT, wortmannin, reference compound] | 90.68±1.46%

Test system: not listed separately
Test: in vitro
Conditions: PAMPA

Row | Compound | Papp at 10 h, 100 μg/mL
49 | O=C(Nc1ncc(N2CCOCC2)s1)c1cccc(O)c1 [Compound 20, 3-Hydroxy-N-(5-morpholinothiazol-2-yl)benzamide] | 0.45 ± 0.03 ×10⁻⁶ cm/s
50 | O=C(Nc1ncc(N2CCOCC2)s1)c1ccc(O)cc1 [Compound 21, 4-Hydroxy-N-(5-morpholinothiazol-2-yl)benzamide] | 0.09 ± 0.01 ×10⁻⁶ cm/s
51 | CC(=O)Oc1ccc(C(=O)Nc2ncc(N3CCOCC3)s2)cc1 [Compound 23, 4-Acetyloxy-N-(5-morpholinothiazol-2-yl)benzamide] | 4.92 ± 0.31 ×10⁻⁶ cm/s
52 | O=C(Nc1ncc(N2CCOCC2)s1)c1ccccc1 [Compound 24, N-(5-Morpholinothiazol-2-yl)benzamide] | 12.6 ± 1.22 ×10⁻⁶ cm/s
53 | O=C(Nc1ncc(N2CCOCC2)s1)c1cccc2ccccc12 [Compound 30, N-(5-Morpholinothiazol-2-yl)-1-naphthamide] | 5.76 ± 0.55 ×10⁻⁶ cm/s
54 | O=C(Nc1ncc(N2CCOCC2)s1)c1ccc2ccccc2c1 [Compound 31, N-(5-Morpholinothiazol-2-yl)-2-naphthamide] | 3.42 ± 0.07 ×10⁻⁶ cm/s
